Here are results for 16 compounds from PubChem BioAssay (NCI).

Holding throughout (assay): inhibition of tumour cell growth, NCI panel, 48 h
The subject of experiment [1] is HT29 colon.
Experiment [2] relates to HCT-116 colon.
The test system of experiment [3] is UO-31 renal.
For experiment [4], the system named is NCI-H23 lung.
Experiment [5] deals with HOP-92 NSCLC.
Experiment [6] deals with HCC-2998 colon.
The subject of experiment [7] is RPMI-8226 leukemia.
For experiment [8], the system named is 786-0 renal.
Experiment [9] concerns MDA-MB-231 breast.
Experiment [10] relates to CAKI-1 renal.
Experiment [11] concerns UACC-257 melanoma.
For experiment [12], the system named is SF-268 CNS.
Experiment [13] has as its system SK-MEL-5 melanoma.
In experiment [14] the test system is CCRF-CEM leukemia.
The subject of experiment [15] is NCI-H522 lung.
Experiment [16] has as its system IGROV1 ovarian.
Experiment [17] has as its system SNB-19 CNS.
Experiment [18] deals with NCI/ADR-RES ovarian.
The test system of experiment [19] is UACC-62 melanoma.
The test system of experiment [20] is MDA-N.

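Cells were grown in 96-well plates and exposed to each compound for 48 hours at five concentrations; endpoints were interpolated linearly between bracketing concentrations, or set to the highest concentration if not reached. TGI: total growth inhibition.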

On to `CC(C)=C1C(=O)C[C@]2(C)C/C=C(\C)CC/C=C(\C)CC[C@@H]12`, for which the TGI in [1] turned out to be 16.4 µM; in experiment [2], 15.9 µM; in [3], 15.1 µM; in experiment [4], 23.9 µM; in experiment [5] it was 19.3 µM; in experiment [6], 14.9 µM. Besides, the TGI in [7] worked out at 36.9 µM; in experiment [8], 16.7 µM; in [9], 15.4 µM; in experiment [10] it was 15.1 µM; in experiment [11], 25.4 µM; in experiment [12] it was 18 µM. In addition, the TGI in experiment [13] was 15.5 µM; in experiment [14], 19.5 µM; in experiment [15], 13.9 µM; in experiment [16], 19.4 µM; in experiment [17], greater than 50 µM; in experiment [18] it was 14.8 µM. Besides, the TGI in [19] came to 15.3 µM.

Take `CSc1sc(C)cc1-c1nsc(=O)o1`: the TGI in experiment [1], in experiment [2], in experiment [3], in experiment [4], in experiment [5] and in [6] was greater than 100 µM throughout. Also, the TGI in experiment [7], in [8], in experiment [10], in [11], in experiment [12] and in experiment [13] was greater than 100 µM in each case. Also, the TGI in [20], in [14], in [15], in experiment [16], in experiment [17] and in experiment [18] was greater than 100 µM each time. In experiment [19], this compound gave a TGI greater than 100 µM.

Turning to `CC(=O)OC[C@@]12CC[C@H]3C(C)(C)CCC[C@]3(C)[C@H]1C[C@@H](C1=CC(=O)O[C@H]1O)O2`, the TGI came out at 7.71 µM in [1]; 9.07 µM in experiment [2]; 4.95 µM in [3]; 5.01 µM in experiment [4]; 3.12 µM in experiment [6]; 7.27 µM in experiment [7]. The TGI in [8] was found to be 3.32 µM; in [10], 5.21 µM; in experiment [11], 9.26 µM; in [12], 28.1 µM; in [13], 9.08 µM; in [20], 5.53 µM. The TGI in [14] was determined as 3.62 µM; in [15], 8.03 µM; in experiment [16], 5.78 µM; in experiment [17] it was 37.2 µM; in experiment [18], 16.1 µM; in [19] it was 4.74 µM.

As for `CCOC(=O)c1c(NS(=O)(=O)c2ccc(Br)cc2)sc2c1CCCC2`, the TGI in experiment [1] was 10.1 µM; in experiment [2] it was 21.1 µM; in experiment [3] it was 15.7 µM; in experiment [4], 18.7 µM; in experiment [6], 32.6 µM; in [7], 30.5 µM. The TGI in experiment [8] stood at 29.4 µM; in experiment [9], 16.1 µM; in experiment [10] it was 33.7 µM; in experiment [11] it was 47.5 µM; in experiment [12], 10.9 µM; in experiment [13], 18.2 µM. In addition, the TGI in [20] is 52.9 µM; in experiment [14], greater than 100 µM; in experiment [15] it was 16.2 µM; in experiment [16], 8.79 µM; in experiment [17] it was 20.6 µM; in experiment [18], 3.72 µM. The compound further showed a TGI in [19] of 17.7 µM.

As for `O=C1OC(C2Cc3cc4c(cc3C2=O)CCC4)c2ccccc21` (centres undefined), the TGI is greater than 100 µM in experiment [1]; greater than 100 µM in experiment [2]; greater than 100 µM in [3]; greater than 100 µM in experiment [4]; 98.7 µM in experiment [6]; greater than 100 µM in experiment [7]. Moreover, the TGI in experiment [8], in experiment [9], in [10], in experiment [11], in experiment [12] and in [13] was greater than 100 µM throughout. Besides, the TGI in experiment [20], in experiment [14], in experiment [15], in experiment [16], in experiment [17] and in experiment [18] was greater than 100 µM each time. The TGI in [19] is greater than 100 µM.

For `Nc1cc(OCc2ccccc2)c(OCc2ccccc2)cc1C=O`, the TGI in experiment [1] is greater than 100 µM; in [2], 96.8 µM; in [6] it was 34.5 µM; in [7] it was greater than 100 µM; in experiment [8], 55.4 µM; in [9], greater than 100 µM. Besides, the TGI in experiment [11] was greater than 100 µM; in experiment [12], greater than 100 µM; in experiment [13], 93.1 µM; in experiment [20] it was greater than 100 µM; in [14] it was greater than 100 µM; in experiment [15] it was 24.5 µM. Further, the TGI in experiment [16], in [17] and in experiment [18] was greater than 100 µM each time.

`COc1ccc(Cc2cc(OC)c(OC)c(OC)c2)cc1O`: the TGI in [1] is greater than 90.6 µM; in experiment [2], 13.6 µM; in [3], greater than 63.2 µM; in experiment [4] it was greater than 100 µM; in experiment [6], greater than 65.9 µM; in experiment [7], greater than 100 µM. The TGI is greater than 100 µM in experiment [8]; greater than 100 µM in experiment [9]; greater than 100 µM in [10]; greater than 100 µM in [11]; greater than 100 µM in experiment [12]; greater than 37 µM in experiment [13]. The TGI in experiment [20] was greater than 100 µM; in experiment [14], greater than 100 µM; in experiment [15], 5.49 µM; in experiment [16], greater than 100 µM; in experiment [17], greater than 100 µM; in [18], greater than 100 µM. In [19], the TGI is greater than 73.2 µM.

Take `Nn1c(-c2ccccc2Nc2ccccc2-c2n[nH]c(=S)n2N)n[nH]c1=S`: the TGI in experiment [1], in experiment [2], in experiment [3], in experiment [4], in experiment [5] and in [6] was greater than 50 µM in each case. Moreover, the TGI in [7], in [8], in [11], in experiment [12], in [13] and in experiment [14] was greater than 50 µM in each case. The TGI in experiment [15], in experiment [16], in experiment [17], in [18] and in experiment [19] was greater than 50 µM in each case.

Regarding `Cc1cc(C)nc(NC(=S)Nc2cccc(Cl)c2)c1`, the TGI in [1], in experiment [2], in experiment [3], in experiment [4], in experiment [6] and in experiment [7] was greater than 100 µM throughout. Also, the TGI was greater than 100 µM in [8]; greater than 100 µM in [9]; greater than 86.5 µM in [10]; greater than 100 µM in experiment [11]; greater than 100 µM in [12]; greater than 100 µM in experiment [20]. Also, the TGI in experiment [14], in [16], in experiment [17], in experiment [18] and in experiment [19] was greater than 100 µM in each case.

With `Fc1ccc(C2(CCCN3CCc4[nH]c5cc(F)ccc5c4C3)OCCO2)cc1`, the TGI in experiment [1] was found to be 15 µM; in [2] it was 24 µM; in experiment [3] it was 10.8 µM; in experiment [4] it was 31.7 µM; in experiment [5], 10.2 µM; in experiment [6] it was 4.21 µM. Also, the TGI in [7] was found to be 28.1 µM; in experiment [8], 27.1 µM; in [9], 35 µM; in experiment [11], 16.5 µM; in experiment [12], 30.9 µM; in experiment [13] it was 23.5 µM. Further, the TGI is 31.4 µM in experiment [14]; 35.4 µM in experiment [16]; 23.3 µM in experiment [17]; greater than 100 µM in experiment [18]; 26.7 µM in experiment [19].

Consider `CCOC(=O)CSc1[nH]c2nc(C)nc(Cl)c2c1C#N`, for which the TGI in [1], in experiment [4], in [5], in experiment [6], in experiment [7] and in experiment [8] was greater than 10 µM throughout. Further, the TGI in [9], in [10], in experiment [11], in [12], in experiment [13] and in experiment [20] was greater than 10 µM each time. Moreover, the TGI in experiment [14], in experiment [16] and in experiment [19] was greater than 10 µM in each case.

As for `OCC1C(O)C(O)[C@@H]2SCCN12` (some centres undefined), the TGI in experiment [1], in experiment [2], in [3], in [4], in experiment [5] and in experiment [6] was greater than 100 µM in each case. Also, the TGI in experiment [7], in [8], in experiment [9], in experiment [10], in experiment [11] and in experiment [12] was greater than 100 µM in each case. The TGI in [13], in experiment [14], in experiment [15], in [16], in experiment [17] and in experiment [18] was greater than 100 µM each time. In experiment [19], this compound registered a TGI greater than 100 µM.

For `Cc1ccc2c(=O)c(-c3nnsn3)c[nH]c2n1`, the TGI in [1], in experiment [2], in experiment [3], in experiment [4], in experiment [7] and in experiment [8] was greater than 100 µM each time. In addition, the TGI in experiment [9], in experiment [10], in experiment [11], in experiment [12], in [13] and in [20] was greater than 100 µM each time. The TGI in [14], in experiment [15], in [16], in experiment [17], in [18] and in experiment [19] was greater than 100 µM in each case.

As to `Cn1c(=O)c2[nH]c(/N=N\n3ccc4ccccc43)nc2n(C)c1=O`, the TGI in [1], in experiment [2], in experiment [3], in experiment [4], in [6] and in experiment [7] was greater than 100 µM throughout. Further, the TGI in experiment [8], in experiment [9], in experiment [10], in experiment [11], in [12] and in experiment [13] was greater than 100 µM in each case. For the same compound, the TGI in experiment [20], in experiment [14], in experiment [15], in experiment [17], in experiment [18] and in [19] was greater than 100 µM in each case.

As to `Cc1cc2c(cc1Cl)SC(NN(C)C)=NS2(=O)=O`, the TGI in experiment [1], in experiment [2], in experiment [4], in experiment [6], in experiment [7] and in experiment [8] was greater than 10 µM each time. Further, the TGI in experiment [9], in [10], in experiment [11], in experiment [12], in experiment [13] and in experiment [20] was greater than 10 µM each time. For the same compound, the TGI in experiment [14], in experiment [15], in experiment [16], in [17], in experiment [18] and in experiment [19] was greater than 10 µM each time.

For the compound `COc1cc(/C=C2\N=C(c3ccccc3)N(c3nc4c(Cl)cc(Cl)cc4s3)C2=O)ccc1O`, the TGI is 78.5 µM in experiment [1]; 59.7 µM in experiment [2]; 69 µM in experiment [3]; 68 µM in experiment [5]; 37.8 µM in [6]; 47.4 µM in experiment [7]. In addition, the TGI in experiment [8], in experiment [9], in experiment [10], in experiment [11], in [12] and in experiment [13] was greater than 100 µM in each case. Moreover, the TGI in [14] was 30.4 µM; in experiment [16], greater than 100 µM; in [17] it was greater than 100 µM; in [18], greater than 100 µM; in experiment [19], greater than 100 µM.
